In US7342000B2, “Semisynthetic macrolide antibiotics of the azalide series” (GlaxoSmithKline istrazivacki center Zagreb, priority 2002, dated 2008):

Experiments:
Experiment in all cases: MIC by broth dilution (NCCLS M7-A2)
Format in all cases: cell-based
Settings in all cases: 90% growth inhibition
E. coli ATCC 25922 = tested on: E. coli ATCC 25922
Text: (§1) MIC levels for all compound were determinated on panel of susceptible, and resistant Gram positive bacterial strains (S. aureus, S. pneumoniae and S. pyogenes) and on Gram negative strains (E. coli, H. influenzae, […], M. catarrhalis).

S. pyogenes = tested on: S. pyogenes
Text: as §1

S. aureus ATCC 13709 = tested on: S. aureus ATCC 13709
Text: as §1

E. faecalis ATCC 29212 = tested on: E. faecalis ATCC 29212
Text: as §1

[1] = tested on: M. catarrhalis ATCC 23246
Text: as §1

S. pyogenes M = tested on: S. pyogenes M
Text: as §1

H. influenzae ATCC 49247 = tested on: H. influenzae ATCC 49247
Text: as §1

S. pneumoniae = tested on: S. pneumoniae
Text: as §1

S. pyogenes iMLS = tested on: S. pyogenes iMLS
Text: as §1

Compound	MIK (E. coli ATCC 25922)	MIK (S. pyogenes)	MIK (S. aureus ATCC 13709)	MIK (E. faecalis ATCC 29212)	MIK [1]	MIK (S. pyogenes M)	MIK (H. influenzae ATCC 49247)	MIK (S. pneumoniae)	MIK (S. pyogenes iMLS)
9-Deoxo-9-dihydro-9a-N-[N′-(β-cyanoethyl)-N′-(2,4-dichlorophenyl)carbamoyl-γ-aminopropyl]-9a-aza-9a-homoerithromycin A [Example 39]	>64 µg/mL	≦0.125 μg/ml	1 µg/mL	>64 µg/mL	16 µg/mL	64 µg/mL	16 µg/mL	≦0.125 μg/ml	32 µg/mL
9-Deoxo-9-dihydro-9a-N-{N′-(β-cyanoethyl)-N′-[1-(1-naphtyl)ethyl]carbamoyl-γ-aminopropyl}-9a-aza-9a-homoerithromycin A [Example 36]	64 µg/mL	≦0.125 μg/ml	2 µg/mL	16 µg/mL	4 µg/mL	16 µg/mL	2 µg/mL	≦0.125 μg/ml	8 µg/mL
CC[C@H]1OC(=O)[C@H](C)[C@@H](O[C@H]2C[C@@](C)(OC)[C@@H](O)[C@H](C)O2)[C@H](C)[C@@H](O[C@@H]2O[C@H](C)C[C@H](N(C)C)[C@H]2O)[C@](C)(O)C[C@@H](C)CN(CCCNC(=O)N(CCC#N)c2ccccc2C(F)(F)F)[C@H](C)[C@@H](O)[C@]1(C)O [Example 32, 9-Deoxo-9-dihydro-9a-N-[N′-(β-cyanoethyl)-N′-(2-(trifluoromethyl)phenyl)carbamoyl-γ-aminopropyl]-9a-aza-homoerithromycin A]	32 µg/mL	≦0.125 μg/ml	4 µg/mL	64 µg/mL	8 µg/mL	32 µg/mL	16 µg/mL	≦0.125 μg/ml	8 µg/mL
CC[C@H]1OC(=O)[C@H](C)[C@@H](O[C@H]2C[C@@](C)(OC)[C@@H](O)[C@H](C)O2)[C@H](C)[C@@H](O[C@@H]2O[C@H](C)C[C@H](N(C)C)[C@H]2O)[C@](C)(O)C[C@@H](C)CN(CCCNC(=O)Nc2cccc3ccccc23)[C@H](C)[C@@H](O)[C@]1(C)O [Example 2, 9-Deoxo-9-dihydro-9a-N-[N′-(1-naphtyl)carbamoyl-γ-aminopropyl]-9a-aza-9a-homoerithromycin A]	8 µg/mL	≦0.125 μg/ml	0.5 µg/mL	4 µg/mL	0.25 µg/mL	4 µg/mL	1 µg/mL	≦0.125 μg/ml	2 µg/mL
CC[C@H]1OC(=O)[C@H](C)[C@@H](O[C@H]2C[C@@](C)(OC)[C@@H](O)[C@H](C)O2)[C@H](C)[C@@H](O[C@@H]2O[C@H](C)C[C@H](N(C)C)[C@H]2O)[C@](C)(O)C[C@@H](C)CN(CCCNC(=O)Nc2ccc3ccccc3c2)[C@H](C)[C@@H](O)[C@]1(C)O [Example 12, 9-Deoxo-9-dihydro-9a-N-[N′-(2-naphtyl)carbamoyl-γ-aminopropyl]-9a-aza-9a-homoerithromycin A]	32 µg/mL	≦0.125 μg/ml	8 µg/mL	8 µg/mL	0.5 µg/mL	8 µg/mL	2 µg/mL	16 µg/mL	2 µg/mL
